Assay results from ChEMBL document CHEMBL1123047, “Quantitative evaluation of the beta 2-adrenoceptor affinity of phenoxypropanolamines and phenylethanolamines” (J Med Chem, 1985).

How the values were obtained:
[1] = molecular target: Beta-2 adrenergic receptor (Bos taurus) (UniProt Q28044)
Description: (§2) Affinity for cow beta-2 adrenergic receptor by measuring displacement (-)-[3H]dihydroalprenolol (DHA)

[2] = molecular target: Beta-2 adrenergic receptor (Bos taurus, UniProt Q28044); settings: read-out: Kd app
Description: as §2

[3] = (§1) Partition coefficient (logP); settings: octanol/water
[4] = as §1; assay type: physicochemical; settings: octanol/water

Chain of Beta-2 adrenergic receptor (Q28044 whole entry): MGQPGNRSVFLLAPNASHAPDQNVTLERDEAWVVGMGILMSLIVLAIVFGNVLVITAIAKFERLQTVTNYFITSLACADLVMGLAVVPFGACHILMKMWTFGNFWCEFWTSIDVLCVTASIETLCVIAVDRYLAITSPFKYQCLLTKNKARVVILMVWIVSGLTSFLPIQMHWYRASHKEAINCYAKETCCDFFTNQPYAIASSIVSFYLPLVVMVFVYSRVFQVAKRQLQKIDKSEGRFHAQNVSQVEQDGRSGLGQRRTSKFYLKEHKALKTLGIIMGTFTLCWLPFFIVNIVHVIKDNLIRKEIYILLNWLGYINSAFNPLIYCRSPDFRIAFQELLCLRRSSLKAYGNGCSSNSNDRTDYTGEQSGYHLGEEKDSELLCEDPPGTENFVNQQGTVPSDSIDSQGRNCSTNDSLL
Chain of Beta-2 adrenergic receptor (Bos taurus) (Q28044 whole entry, looked up): as the sequence (Q28044 whole entry) above

-Log KD [1] | Kd [2] [nM] | logP [4] | Structure (SMILES) | logP [3]
8.05 | 17.8 |  | CCC(C)c1cccc(OCC(O)CNC(C)C)c1 (centres undefined) | 
6.58 |  |  | CC(C)(C)NCC(O)c1ccc(O)c(CO)c1 (centres undefined) | 
7.66 | 43.6 |  | Cc1cccc(OCC(O)CNC(C)C)c1 (centres undefined) [TOLIPROLOL] | 
5.8 | 3160 |  | CC(C)NCC(O)c1ccc(O)c(CO)c1 (centres undefined) | 
6.27 | 1070 |  | CC(C)NC[C@H](O)COc1ccc(O)cc1 [PRENALTEROL] | 
7.1 | 160 |  | CC(C)NCC(O)c1ccc2ccccc2c1 (centres undefined) [PRONETALOL] | 
7.57 | 53.7 |  | CC(C)NCC(O)COc1ccccc1 (centres undefined) | 
 | 470 |  | CC(C)(C)NCC(O)c1ccc(O)c(C(N)=O)c1 (centres undefined) | 
6.57 |  |  | CC(C)NCC(O)c1ccc(NS(C)(=O)=O)cc1 (centres undefined) | 
7.6 | 50.1 |  | CC(C)NCC(O)COc1ccccc1CO (centres undefined) | 
 | 9120 |  | CC(C)NCC(O)c1cc(O)cc(O)c1 (centres undefined) [METAPROTERENOL] | 
8.29 | 10.2 |  | Cc1cc(C)cc(OCC(O)CNC(C)C)c1 (centres undefined) | 
8.29 | 10.2 |  | Cc1ccccc1OCC(O)CNC(C)C (centres undefined) | 

More lines, now with the values behind:

Structure (SMILES) | -Log KD [1] | Kd [2] [nM] | logP [4] | logP [3]
CC(C)NCC(O)c1cccc(O)c1 (centres undefined) [METATEROL] | 6.34 | 910 |  | 
CCCc1ccccc1 |  |  |  | 3.57
CC(C)(C)NCC(O)c1ccccc1Cl (centres undefined) [TULOBUTEROL] |  | 130 |  | 
CC(C)NCC(O)c1ccc(O)cc1 (centres undefined) [DETERENOL] |  | 4270 |  | 
CC(C)(C)NCC(O)c1ccc(O)c(O)c1 (centres undefined) [COLTEROL] | 6.55 | 600 |  | 
Oc1cccc(O)c1 [RESORCINOL] |  |  |  | 0.8
CC(C)(C)NCC(O)c1cc(O)cc(O)c1 (centres undefined) | 5.73 |  |  | 
Nc1ccccc1O [QUESTIOMYCIN B] |  |  |  | 0.52
CNc1cc(C(O)CNC(C)(C)C)ccc1O (centres undefined) |  | 520 |  | 
CC(C)(C)NCC(O)c1ccc(O)c(N)c1 (centres undefined) | 5.99 | 2040 |  | 
CC(C)(C)NCC(O)c1ccc(O)cc1 (centres undefined) | 6.2 | 1260 |  | 
CC(C)(C)NCC(O)c1cc(Cl)c(O)c(Cl)c1 (centres undefined) | 7.41 | 1950 |  | 
CC(C)NCC(O)c1cc(Cl)c(N)c(Cl)c1 (centres undefined) | 7.54 | 58 |  | 
CC(C)NCC(O)COc1ccccc1C1CC1 (centres undefined) [PROCINOLOL] | 9.41 | 0.39 |  | 
CC(C)NCC(O)c1ccc([N+](=O)[O-])cc1 (centres undefined) [NIFENALOL] |  | 1320 |  | 
C#CCOc1ccccc1OCC(O)CNC(C)C (centres undefined) | 8.97 | 2.14 |  | 
CCCc1ccccc1OCC(O)CNC(C)C (centres undefined) | 9.2 | 0.63 |  | 
OCc1ccccc1O [SALICYL ALCOHOL] |  |  |  | 0.73
CC(C)NCC(O)COc1ccccc1C#N (centres undefined) | 7.96 | 21.9 |  | 
CC(C)NCC(O)c1ccc(O)c(N)c1 (centres undefined) | 5.59 | 5130 |  | 
NC(=O)c1ccccc1O [SALICYLAMIDE] |  |  | 1.28 | 
